Where two headings read alike, the source gives them in different places. Positions of bridges follow the written chain, without caps; N, C: chain ends. Non-standard residues stand in square brackets, D forms with d. Residues, ends and D or L forms follow the SMILES beside them. Bta = N[C@@H](Cc1csc2ccccc12)C(=O)O; Hyp = O=C(O)[C@@H]1C[C@@H](O)CN1; d(hLeu) = CC(C)CC[C@@H](N)C(=O)O; dCha = N[C@H](CC1CCCCC1)C(=O)O; Orn = NCCC[C@H](N)C(=O)O
What was measured:
human C5aR(CD88) [1] = biological target: T1, human C5aR(CD88) (Homo sapiens, UniProt P21730); assay: Determination of EC50-values in an enzyme release assay (agonistic activity); type: cell-based; conditions: for agonistic activity (in words): cellular assay, up to a concentration of at least 1430 nM
T1 construct: expressed in transfected cells; host or cells: rat basophilic leukemia cells (RBL)
T1 sequence (P21730 1-350): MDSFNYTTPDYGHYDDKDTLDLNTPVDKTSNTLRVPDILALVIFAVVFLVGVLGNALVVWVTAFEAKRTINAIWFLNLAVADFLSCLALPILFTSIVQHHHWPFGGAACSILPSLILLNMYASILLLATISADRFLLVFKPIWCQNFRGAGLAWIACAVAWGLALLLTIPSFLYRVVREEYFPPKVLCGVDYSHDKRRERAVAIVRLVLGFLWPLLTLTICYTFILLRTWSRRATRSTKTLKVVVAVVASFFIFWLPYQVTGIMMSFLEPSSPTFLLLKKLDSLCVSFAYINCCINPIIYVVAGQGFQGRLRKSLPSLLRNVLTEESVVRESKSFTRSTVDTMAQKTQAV
Description: The assay procedure was described by Kohl (Kohl 1997 The Anaphylatoxins. In: Dodds, A. W., Sim, R. B. (Eds.), Complement: A Practical Approach. Oxford, pp. 135-163). Basophilic leukemia cells from rats (RBL), which express the human C5aR(CD88), were cultivated in DMEM with 10% fetal bovine serum, 100 U/ml penicillin, 100 μg/ml streptomycin and 2 mM glutamine (all components of the media from Biochrome, Berlin) to confluence at 37° C. and 10% CO2. The following specifications refer to single cell culture flask having a surface of 75 cm^2. Medium was decanted from cells. Cells were washed with 10 ml PBS (Dulbecco's PBS, Biochrome) and subsequently overlayed with 3 ml Cell Dissociation Solution (CDS, Sigma). Cells were incubated for 1 min at room temperature. Subsequently, CDS was removed and the cells were further incubated for 10-15 min at 37° C. for dissociation. In the assay, 20 μl of the solution containing the compound to be tested were used. This solution should not contain more than 2.8% DMSO. For the dilution process, the compounds were diluted in ⅓ or ½ steps. To 20 μl compound solution 75 μl of the RBL-cells were added, which were treated as follows: after dissociation cells were detached and warmed at 37° C. in 10 ml HAG-CM (20 mM HEPES; 125 mM NaCl, 5 mM KCl, 1 mM CaCl2, 1 mM MgCl2, 0,5 mM Glucose, 0,25% BSA. HEPES-preparation: 2.3 g/l HEPES-salt +2.66 g/l HEPES acid). Cells were counted and centrifuged (200×g, 10 min). The cell pellet was resuspended in preheated HAG-CM (i.e. Hepes-buffer NaCl-glucose-solution with calcium and magnesium), and the cell density was adjusted to 2×10^6 cells/ml. The cells were incubated at 37° C. for 5 min. Per ml cell suspension 27 μl of a cytochalasin B-solution were added (100 μg/ml in DMSO, Sigma). The cells were incubated for further 3 min at 37° C. 75 μl of the cell suspension were added to 20 μl compound solution leading to a volume of 95 μl per well. After incubation of the cells for 10 min at 37° C. 10 μl hrC5a (10.5 nM in HAG-CM, Sigma) per well were added. The cells were incubated for additional 5 min at 37° C. The mtp was then transferred to ice and centrifuged for 3 min at 4° C. with 1200×g. 75 μl of the supernatant were added to 100 μl substrate-solution (2.7 mg/ml p-nitrophenyl-N-acetyl-β-D-glucosaminide (Sigma) in 42.5 mM Na-acetate pH 4.5). The mtp was incubated for further 60 min at 37° C. 75 μl 0.4 M glycine pH 10.4 were added per well. The mtp was transferred into a reader and the absorption at 405 nm was measured. IC50-values were obtained following the equation; y=((A-D)/(1+(x/C)^B))+D.
Determination of EC50-Values in an Enzyme Release Assay
The determination of EC50-values was performed according to the procedure given in example II, with the exception that 30 μl of the test compound need to be mixed with 75 μl of the cell suspension mentioned in example 11. Neither preincubation nor addition of C5a for stimulation of enzyme release is needed.

C5aR [2] = biological target: T2, C5aR (Homo sapiens, UniProt P21730); conditions: compound numbers of WO 03/033528; read-out: IC50 as a measure for affinity, WO 03/033528; cited from earlier work
T2 construct: measurements with isolated membranes from polymorphonuclear neutrophilic granulocytes (PMN membranes); host or cells: isolated PMN membranes (endogenous receptor)
T2 sequence (P21730 1-350): T1 sequence (P21730 1-350)

C5aR [3] = biological target: T2, C5aR; conditions: compound numbers of WO 03/033528; read-out: antagonistic activity, WO 03/033528; cited from earlier work
human C5aR(CD88) [4] = biological target: T1, human C5aR(CD88); assay: Determination of the IC50 value in an enzyme release assay (functional assay, antagonistic activity); type: cell-based; conditions: for inhibitory activity (in words): functional assay of example 11, noteworthy = IC50 less than 200 nM
[5] = Solubility determination for selected C5aR-antagonists; type: physicochemical; conditions: for Solubility in 20 mM HEPES pH 7.4 (% of 200 μM): 20 mM HEPES pH 7.4, 24 h at RT
Description: Solubility Determination for Selected C5aR-Antagonists
[…] The undissolved part was removed by centrifugation after 24 h. The UV-absorption of the supernatant was measured and compared to a reference solution of the compound in 60% MeOH.

[6] = Measurement of the AB-permeability in a TC-7 based assay-system; type: in vitro ADME; conditions: human
Description: Measurement of the AB-Permeability in a TC-7 Based Assay-System The screening compounds are diluted to a 50 μM solution in HBSS-MES (5 mM, pH 6.5) from 10 mM stock solution in 100% DMSO. ^14C-mannitol (approx. 4 μM) is added to the sample. The solution is centrifuged and the supernatant is added to the apical side of the TC-7 cell culture (passage 15, in 24 well transwell plate) to a final DMSO-concentration of 1%. HBSS-HEPES (5 mM, pH 7.4) is placed at the basolateral side. The cells were incubated for 120 min at 37° C.

BALB/c mice = assay: Model of immune complex mediated peritonitis (reverse passive Arthus reaction); type: in vivo; conditions: 1 mg/kg i.v. 15 min before Arthus reaction, lavage after 6 h, FIG. 1
Description: Efficacy of compound 149 in a model of immune complex mediated peritonitis
Immune complex mediated peritonitis resembles the pathological conditions of immune complex related diseases like vasculitis, nephritis, arthritis, and farmer's disease. The associated animal model was described by Heller et al. (1999 Journal of Immunology 163: 985-994) and takes advantage of the pro-inflammatory effects of immune complexes formed after i.v. administration of the antigen and i.p. administration of the antibody.
BALB/c mice (6-8 weeks old) were treated i.v. with compound 149 (1 mg/kg bodyweight in 200 μl vehicle) 15 min before the initiation of the reverse passive Arthus reaction. Arthus reaction was induced through the administration of OVA (20 mg/kg i.v. in 200 μl PBS) and polyclonal anti-OVA Ab (rabbit; 800 μg/Maus i.p). After 6 h a peritoenal lavage with 2 ml PBS 0.1% BSA was done. The collected PE-cells were stained with DIFF-Quick. At least 20 visual fields (100× magnification) were analyzed for the presence of neutrophils.

Wistar rats = assay: Model of C5a induced neutropenia; type: in vivo; conditions: i.v. infusion 10 min before 2 μg/kg hr C5a i.v., FIG. 2
Description: Efficacy of compound 149 in a model of C5a induced neutropenia
C5a induced neutropenia is a model for shock induced diseases (e.g. septic shock), where the systemic role of C5a (neutropenia, blood pressure decrease) plays an important role. The reason for the decrease of the neutrophils in the circulation is their binding to the vessel walls due to the C5a stimulus. These processes of neutrophil recruitment are playing an important role in many other diseases like reperfusion injury. This model was also described by Short et al. (1999 British Journal of Pharmacology 125: 551-554).
Female Wistar rats were treated i.p. with ketamine (80 mg/kg) and xylazine (12 mg/kg). A catheter was introduced in the jugular vein and the animals were subjected to the following procedure:
1. Rats were treated with vehicle or compounds according to the invention like compound 149 via i.v. infusion. A blood sample was taken one minute before compound treatment. 2. 10 min after compound infusion rats were treated with 2 μg/kg hr C5a i.v. (2 μg/kg over 1 min). […]
White blood cell count was measured with a haematology-cell-counter. […]
The differential cell count was determined as the sum of neutrophils, eosinophils, basophils, lymphocytes and monocytes of 100 cells. Then the percentage of the neutrophils in relation to all white blood cells was calculated.

human PMNs = conditions: cellular myeloperoxidase release assay with human PMNs; read-out: IC50 (antagonistic activity), WO 99/00406; cited from earlier work
[7] = antagonistic activity, IC50 group in enzyme release assay, RBL cells expressing human C5aR(CD88), read-out: activity (group)

| Molecule | agonistic activity (in words) (human C5aR(CD88) [1]) | IC50 (C5aR [2]) [nM] | IC50 (human C5aR(CD88) [4]; [7]) [nM] | inhibitory activity (in words) (human C5aR(CD88) [4]) | Solubility in 20 mM HEPES pH 7.4 (% of 200 μM) [5] | solubility in aqueous HEPES buffer (pH 7.4) [5] [%] | Papp A→B at 120 min, 50 μM ([6]; Caco-2, values in text) [×10⁻⁶ cm/s] | other results |
| --- | --- | --- | --- | --- | --- | --- | --- | --- |
| CC(=O)N[C@@H](Cc1ccccc1)C(=O)N[C@H]1CCCNC(=O)[C@H](Cc2ccccc2)NC(=O)[C@H](Cc2c[nH]c3ccccc23)NC(=O)[C@@H](CC2CCCCC2)NC(=O)[C@@H]2CCCN2C1=O [Compound 1, Ac-Phe-[Orn-Pro-cha-Trp-Phe]] (Ac-F[Orn]P[dCha]WF; lactam 2-C) | pure antagonists | 450 | 20 to 50 | without significant loss of activity | 8 % of 200 μM | 8 | – | EC50 (human C5aR(CD88) [1]; agonistic activity, no C5a added, read-out: EC50): > 1430 nM; IC50 (C5aR [3]): 28 nM; IC50 (human C5aR(CD88) [4]; functional assay of example 11, values in text, read-out: IC50): 23 nM; inhibitory activity (in words) (human C5aR(CD88) [4]; listed as Ac-Phe-[Orn-Pro-cha-Trp-Phe]): noteworthy inhibitory activity |
| CC(=O)N[C@@H](Cc1ccccc1)C(=O)N[C@H]1CCCNC(=O)[C@H](Cc2ccccc2)NC(=O)[C@H](Cc2c[nH]c3ccccc23)NC(=O)[C@@H](CC2CCCCC2)NC(=O)[C@@H]2C[C@@H](O)CN2C1=O [Compound 2, Ac-Phe-[Orn-Hyp-cha-Trp-Phe]] (Ac-F[Orn][Hyp][dCha]WF; lactam 2-C) | pure antagonists | – | 20 to 50 | noteworthy inhibitory activity | 13 % of 200 μM | 13 | 14.3 | EC50 (human C5aR(CD88) [1]): > 1430 nM; Papp A→B at 120 min, 50 μM ([6]; Caco-2, TC-7 cells, 50 μM, apical pH 6.5, basolateral pH 7.4, 120 min at 37° C.): 14.2 ×10⁻⁶ cm/s |
| CC(=O)N[C@@H](Cc1ccccc1)C(=O)N[C@@H](CCCN)C(=O)N1CCC[C@H]1C(=O)N[C@H](CCC(C)C)C(=O)N[C@@H](Cc1csc2ccccc12)C(=O)N[C@@H](Cc1ccccc1)C(N)=O [Compound 149, Ac-Phe-Orn-Pro-hle-Bta-Phe-NH2] (Ac-F[Orn]P[d(hLeu)][Bta]F-NH2) | pure antagonists | – | 10 to 20 | noteworthy inhibitory activity | – | – | – | influx of neutrophils / pro-inflammatory cells into the peritoneum (BALB/c mice): reduction of the influx of pro-inflammatory cells into the peritoneum; C5a-induced neutropenia (percentage of neutrophils over time) (Wistar rats): reduces the C5a-induced neutropenia remarkable |
| CC(C)NCC(O)COc1cccc2ccccc12 (stereo not drawn) [Propanolol, reference compound] | – | – | – | – | – | – | 31.1 | – |
| CC(=O)N[C@@H](Cc1ccccc1)C(=O)N[C@H]1CCCNC(=O)[C@H](CCCNC(=N)N)NC(=O)[C@H](Cc2c[nH]c3ccccc23)NC(=O)[C@@H](C)NC(=O)[C@@H]2CCCN2C1=O [compound 47] | – | 24000 | > 2000 | – | – | – | – | – |
| Me-Phe-Lys-Pro-cha-Trp-arg | – | – | – | – | – | – | – | IC50 (human PMNs): 85 nM |

Source: patent US20080161232A1, “C5a Receptor Antagonist” (JERINI AG, priority 2005, published 2008)
